From patent US20030194373A1, “Angiogenesis targeting molecules” (priority 1998, published 2003)

Experiments:
angiogenesis = details: compared with fumagillin; cited from earlier work
αvβ3 receptor = target: T1, αvβ3 receptor (Homo sapiens, UniProt P05106+P06756); assay: Cell adhesion assay with HUVECs and vitronectin; assay type: cell-based; details: HUVECs, FIG. 5
T1 construct: The HUVECs are known to express KDR, Flt-1 and αvβ3 receptors; host or cells: HUVEC
Description: HUVECs (BioWhittaker) were cultured on gelatin-coated plates in MCDB 131 media supplemented with 15% fetal bovine serum (FBS), 4 ng/ml basic fibroblast growth factor, 10 ng/ml epidermal growth factor, and 10 U/ml heparin; cells were used in experiments at passages 2-10. The HUVECs are known to express KDR, Flt-1 and αvβ3 receptors.
HUVECs were harvested using 15 mM EDTA pH8.0, washed 3 times, and resuspended in serum-free media. 4×10^4 cells were preincubated either alone (control) or with test compound for 15 minutes at 37° C., then incubated in 96 well plates coated with known integrin ligand—eg. 5 μg/ml vitronectin (Sigma Aldrich Canada, Oakville, ON) coated 3 hours., 37° C., or RGD-ECM precoated plates (Chemicon International, Temecula, Calif.)—and blocked with 1% bovine serum albumin (BSA). Cells were allowed to adhere for 1-2 hours at 37° C. Unbound cells were removed by washing with phosphate-buffered saline (PBS) and the remaining adherent cells were fixed with 2% paraformaldehyde (30 minutes, room temperature). Adhesion was quantitated by cell staining with crystal violet followed by dye extraction with 10% acetic acid. The absorbance was measured at 595 nm in a microplate reader (Bio-Rad Laboratories, Richmond, Calif.). The sequence RGDS was used as a positive control, and RGES was used as a negative control. […]

Flt-1 = Flt-1 (Homo sapiens, UniProt P17948); details: Flt-1 receptor; read-out: binding affinity to VEGF (Flt-1); cited from earlier work
KDR/Flk-1 = KDR/Flk-1 receptor; read-out: binding affinity to VEGF (KDR/Flk-1); cited from earlier work

T1 sequence (P06756 31-889 limits assumed): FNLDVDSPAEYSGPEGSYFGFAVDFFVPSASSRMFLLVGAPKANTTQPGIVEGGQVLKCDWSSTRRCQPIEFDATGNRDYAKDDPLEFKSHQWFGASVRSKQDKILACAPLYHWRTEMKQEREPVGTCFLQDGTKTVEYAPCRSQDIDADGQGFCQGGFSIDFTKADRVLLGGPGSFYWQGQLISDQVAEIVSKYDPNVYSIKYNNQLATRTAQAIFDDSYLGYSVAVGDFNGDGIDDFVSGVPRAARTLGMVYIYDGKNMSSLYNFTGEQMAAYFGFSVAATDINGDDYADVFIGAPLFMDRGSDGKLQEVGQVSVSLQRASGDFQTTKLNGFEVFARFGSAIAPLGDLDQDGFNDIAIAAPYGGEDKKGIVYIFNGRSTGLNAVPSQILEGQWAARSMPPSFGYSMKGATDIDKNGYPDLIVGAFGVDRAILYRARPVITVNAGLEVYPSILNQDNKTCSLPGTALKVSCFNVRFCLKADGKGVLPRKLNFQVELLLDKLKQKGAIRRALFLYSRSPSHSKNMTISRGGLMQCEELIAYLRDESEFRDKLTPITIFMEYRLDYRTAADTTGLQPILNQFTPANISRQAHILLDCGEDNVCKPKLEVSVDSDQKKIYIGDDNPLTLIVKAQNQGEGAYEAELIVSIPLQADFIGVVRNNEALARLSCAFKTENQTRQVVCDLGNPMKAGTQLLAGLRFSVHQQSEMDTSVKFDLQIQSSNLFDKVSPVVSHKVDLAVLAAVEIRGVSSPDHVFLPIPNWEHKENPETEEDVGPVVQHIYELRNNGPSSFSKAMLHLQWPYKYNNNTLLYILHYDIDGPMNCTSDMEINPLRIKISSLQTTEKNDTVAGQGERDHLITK
T1 sequence (P06756 891-1048 partner limits assumed): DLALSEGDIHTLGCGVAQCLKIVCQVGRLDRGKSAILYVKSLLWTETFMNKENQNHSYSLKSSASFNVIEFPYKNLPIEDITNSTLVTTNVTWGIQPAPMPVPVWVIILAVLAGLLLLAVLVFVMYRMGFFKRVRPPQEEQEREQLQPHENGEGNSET
T1 sequence (P05106 27-788): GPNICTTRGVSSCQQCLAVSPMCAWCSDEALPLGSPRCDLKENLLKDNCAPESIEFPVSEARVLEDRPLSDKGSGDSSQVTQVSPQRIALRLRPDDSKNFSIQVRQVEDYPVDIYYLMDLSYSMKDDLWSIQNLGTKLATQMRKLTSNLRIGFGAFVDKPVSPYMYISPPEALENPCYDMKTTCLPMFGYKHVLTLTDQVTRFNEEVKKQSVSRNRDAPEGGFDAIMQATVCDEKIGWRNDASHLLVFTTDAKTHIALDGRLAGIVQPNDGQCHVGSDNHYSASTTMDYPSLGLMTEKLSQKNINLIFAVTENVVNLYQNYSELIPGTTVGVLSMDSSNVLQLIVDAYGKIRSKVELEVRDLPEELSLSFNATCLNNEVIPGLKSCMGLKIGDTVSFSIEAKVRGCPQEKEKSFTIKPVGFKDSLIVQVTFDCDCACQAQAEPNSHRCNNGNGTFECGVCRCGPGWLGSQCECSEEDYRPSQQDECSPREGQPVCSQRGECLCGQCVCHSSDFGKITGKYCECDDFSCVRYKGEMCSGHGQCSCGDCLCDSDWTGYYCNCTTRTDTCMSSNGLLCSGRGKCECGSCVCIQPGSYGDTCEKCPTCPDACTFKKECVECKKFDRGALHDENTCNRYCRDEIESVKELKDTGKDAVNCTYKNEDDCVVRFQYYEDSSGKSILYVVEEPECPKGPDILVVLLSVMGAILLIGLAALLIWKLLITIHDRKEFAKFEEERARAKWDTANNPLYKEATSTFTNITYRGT
Flt-1, sequence (P17948 27-1338, species assumed): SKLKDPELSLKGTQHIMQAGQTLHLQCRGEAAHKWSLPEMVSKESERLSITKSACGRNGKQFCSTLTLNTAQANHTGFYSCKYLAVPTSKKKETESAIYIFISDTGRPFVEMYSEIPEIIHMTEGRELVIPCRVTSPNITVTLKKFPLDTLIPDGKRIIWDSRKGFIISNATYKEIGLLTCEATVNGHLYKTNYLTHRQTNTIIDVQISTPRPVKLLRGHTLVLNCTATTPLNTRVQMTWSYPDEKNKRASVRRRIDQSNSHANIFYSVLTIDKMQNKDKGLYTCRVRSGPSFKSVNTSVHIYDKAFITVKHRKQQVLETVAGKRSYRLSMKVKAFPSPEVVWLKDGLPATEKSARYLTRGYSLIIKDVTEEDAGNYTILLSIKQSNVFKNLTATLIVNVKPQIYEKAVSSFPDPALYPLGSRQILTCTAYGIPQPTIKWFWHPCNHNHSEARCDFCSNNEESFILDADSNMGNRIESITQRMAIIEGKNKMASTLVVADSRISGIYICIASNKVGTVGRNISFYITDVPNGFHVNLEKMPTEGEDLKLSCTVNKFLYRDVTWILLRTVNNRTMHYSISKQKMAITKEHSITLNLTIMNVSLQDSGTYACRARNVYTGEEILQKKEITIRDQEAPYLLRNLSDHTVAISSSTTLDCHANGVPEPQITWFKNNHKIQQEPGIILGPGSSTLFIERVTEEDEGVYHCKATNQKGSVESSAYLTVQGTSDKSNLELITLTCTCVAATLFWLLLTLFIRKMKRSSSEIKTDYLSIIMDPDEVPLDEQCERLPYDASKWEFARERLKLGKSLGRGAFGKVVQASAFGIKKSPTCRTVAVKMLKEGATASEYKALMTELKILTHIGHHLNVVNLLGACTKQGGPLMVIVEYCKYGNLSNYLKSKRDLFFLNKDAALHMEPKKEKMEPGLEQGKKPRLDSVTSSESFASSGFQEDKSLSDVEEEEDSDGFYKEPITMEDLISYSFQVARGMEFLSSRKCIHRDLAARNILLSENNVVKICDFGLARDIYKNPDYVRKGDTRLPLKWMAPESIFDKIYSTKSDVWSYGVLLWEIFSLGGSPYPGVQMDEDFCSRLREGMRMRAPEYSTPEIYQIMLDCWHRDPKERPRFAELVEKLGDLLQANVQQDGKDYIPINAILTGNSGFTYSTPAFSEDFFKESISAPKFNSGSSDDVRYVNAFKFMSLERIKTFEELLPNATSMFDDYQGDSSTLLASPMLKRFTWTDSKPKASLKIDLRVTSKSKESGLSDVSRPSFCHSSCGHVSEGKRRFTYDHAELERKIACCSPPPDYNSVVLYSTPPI

In the case of CO[C@@H]1C(=O)CC[C@]2(CO2)[C@@]1(O)[C@@]1(C)O[C@@H]1CC=C(C)C [Ovalicin], the “potency as inhibitor of angiogenesis relative to fumagillin” value (angiogenesis) is listed as 50 times.

For CO[C@@H]1[C@H](OC(=O)NC(=O)CCl)CC[C@]2(CO2)[C@H]1[C@@]1(C)O[C@@H]1CC=C(C)C [TNP-470, O-(chloroacetylcarbamoyl)fumagillol], the “potency as inhibitor of angiogenesis relative to fumagillin” value (angiogenesis) is listed as 50 times.

In the case of R-G-D-S [RGDS, reference compound], the “effect on HUVEC binding to vitronectin / affinity for αvβ3 receptor” value (αvβ3 receptor; vitronectin coated plate) is reported as “eliminated the binding” and the inhibition of binding (αvβ3 receptor; vitronectin) is reported as 100%.

In the case of VEGF, the Kd (Flt-1) is given as 0.025 nM and the Kd (KDR/Flk-1) is given as 0.125 nM.
